# Laboratory results: ChEMBL document CHEMBL1154880, “Hydroxylated sclerosporin derivatives from the marine-derived fungus Cadophora malorum” (J Nat Prod, 2010)
# Active and inactive are the calls of the source. The rule behind the calls is not given here.
# Legend:
# [1] = test system: Escherichia coli; test: Antibacterial activity against Escherichia coli at 50 ug/disk; type: functional, organism-based
# [2] = test system: Priestia megaterium; test: Antibacterial activity against Bacillus megaterium at 50 ug/disk; type: functional, organism-based
# [3] = test system: Mycotypha microspora; test: Antifungal activity against Mycotypha microspora at 50 ug/disk; type: functional, organism-based
# [4] = test system: Aspergillus ruber; test: Antifungal activity against Eurotium rubrum at 50 ug/disk; type: functional, organism-based
# [5] = test system: Microbotryum violaceum; test: Antifungal activity against Microbotryum violaceum at 50 ug/disk; type: functional, organism-based
# [6] = test system: [Chlorella] fusca; test: Antialgal activity against Chlorella fusca at 50 ug/disk; type: functional, organism-based; conditions: Scenedesmus fuscus
# [7] = target: Neutrophil elastase (Homo sapiens) (UniProt P08246); test: Inhibition of human neutrophil elastase at 100 uM
# Sequence of Neutrophil elastase (Homo sapiens) (P08246 whole entry): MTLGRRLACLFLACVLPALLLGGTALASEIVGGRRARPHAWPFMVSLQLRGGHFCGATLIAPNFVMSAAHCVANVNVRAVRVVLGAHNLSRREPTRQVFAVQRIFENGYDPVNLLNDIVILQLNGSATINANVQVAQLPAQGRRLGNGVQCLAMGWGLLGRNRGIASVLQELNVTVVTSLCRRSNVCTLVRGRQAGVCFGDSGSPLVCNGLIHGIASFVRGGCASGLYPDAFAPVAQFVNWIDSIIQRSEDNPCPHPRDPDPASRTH
# [8] = test system: NCI-H460; test: Cytotoxicity against human NCI-H460 cells at 100 uM after 48 hrs by sulforhodamine B assay; type: functional, cell-based
# [9] = test system: MCF7; test: Cytotoxicity against human MCF7 cells at 100 uM after 48 hrs by sulforhodamine B assay; type: functional, cell-based
# [10] = test system: SF-268; test: Cytotoxicity against human SF268 cells at 100 uM after 48 hrs by sulforhodamine B assay; type: functional, cell-based
# [11] = target: Dual specificity tyrosine-phosphorylation-regulated kinase 1A (Homo sapiens) (UniProt Q13627); test: Inhibition of DYRK1A at […]
# [12] = target: Cyclin-dependent kinase 5 (Homo sapiens) (UniProt Q00535); test: Inhibition of CDK5 at […]
# Sequence of Cyclin-dependent kinase 5 (Homo sapiens) (Q00535 whole entry, looked up): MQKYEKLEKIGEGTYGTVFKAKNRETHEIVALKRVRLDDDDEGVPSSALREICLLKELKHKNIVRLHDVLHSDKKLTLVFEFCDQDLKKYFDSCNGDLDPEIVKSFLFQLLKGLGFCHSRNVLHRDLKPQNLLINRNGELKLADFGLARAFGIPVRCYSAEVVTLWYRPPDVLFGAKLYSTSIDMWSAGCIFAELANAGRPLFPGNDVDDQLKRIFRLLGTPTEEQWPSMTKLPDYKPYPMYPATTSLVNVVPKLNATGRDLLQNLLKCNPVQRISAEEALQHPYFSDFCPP
# [13] = test system: Human immunodeficiency virus 1; test: Antiviral activity against HIV1 infected in human MT4 cells assessed as inhibition of virus-induced cytopathogenic effect at 50 ug/ml after 5 days by MTT assay; type: functional, organism-based
# [14] = test system: Human immunodeficiency virus 2; test: Antiviral activity against HIV2 infected in human MT4 cells assessed as inhibition of virus-induced cytopathogenic effect at 50 ug/ml after 5 days by MTT assay; type: functional, organism-based
# [15] = test system: Human gammaherpesvirus 4; test: Antiviral activity against Epstein-Barr virus at 100 ug/ml; type: functional, organism-based
# [16] = test system: Plasmodium berghei; test: Antiplasmodial activity against Plasmodium berghei sporozoites expressing GFP infected in hepatocytes at 25 uM by flow cytometry; type: functional, organism-based; conditions: Hepatocyte
# [17] = test system: SARS-CoV; test: Antiviral activity against SARS virus infected in african green monkey Vero76 cells assessed as inhibition of virus-induced cytopathogenic effect at 100 ug/ml after 3 days by neutral red uptake assay; type: functional, organism-based; conditions: Severe acute respiratory syndrome-related coronavirus, Vero 76
# [18] = test system: Influenza A virus; test: Antiviral activity against influenza A H5N1 subtype at 100 ug/ml; type: functional, organism-based
# [19] = test system: Influenza B virus; test: Antiviral activity against influenza B at 100 ug/ml; type: functional, organism-based
# [20] = test system: 3T3-L1; test: Inhibition of adipogenesis in mouse 3T3L1 cells assessed as triglyceride accumulation after 7 days; type: functional, cell-based; conditions: 3T3-L1, 168 h
# [21] = test system: 3T3-L1; test: Inhibition of adipogenesis in mouse 3T3L1 cells assessed as triglyceride accumulation at 100 ug/ml after 7 days relative to control; type: functional; parameters: scale not given: the % may be the effect or the level left
# [22] = test system: 3T3-L1; test: Inhibition of adipogenesis in mouse 3T3L1 cells assessed as triglyceride accumulation at 20 ug/ml after 7 days relative to control; type: functional; parameters: scale not given: the % may be the effect or the level left
# [23] = test system: 3T3-L1; test: Inhibition of adipogenesis in mouse 3T3L1 cells assessed as triglyceride accumulation at 4 ug/ml after 7 days relative to control; type: functional; parameters: scale not given: the % may be the effect or the level left
# [24] = test system: 3T3-L1; test: Cytotoxicity against mouse 3T3L1 cells assessed as cell viability after 7 days; type: cell-based; conditions: 3T3-L1, 168 h
# [25] = Cytotoxicity against mouse 3T3L1 cells assessed as cell viability at 100 ug/ml after 7 days relative to control; type: cell-based; conditions: 3T3-L1 cells, read-out: Activity
# [26] = Cytotoxicity against mouse 3T3L1 cells assessed as cell viability at 20 ug/ml after 7 days relative to control; type: cell-based; conditions: 3T3-L1 cells, read-out: Activity
# [27] = Cytotoxicity against mouse 3T3L1 cells assessed as cell viability at 4 ug/ml after 7 days relative to control; type: cell-based; conditions: 3T3-L1 cells, read-out: Activity
# [28] = test system: 3T3-L1; test: Inhibition of adipogenesis in mouse 3T3L1 cells assessed as triglyceride accumulation at 50 ug/ml after 7 days relative to control; type: functional; parameters: scale not given: the % may be the effect or the level left
# [29] = test system: 3T3-L1; test: Inhibition of adipogenesis in mouse 3T3L1 cells assessed as triglyceride accumulation at 25 ug/ml after 7 days relative to control; type: functional; parameters: scale not given: the % may be the effect or the level left
# [30] = Cytotoxicity against mouse 3T3L1 cells assessed as cell viability at 50 ug/ml after 7 days relative to control; type: cell-based; conditions: 3T3-L1 cells, read-out: Activity
# [31] = Cytotoxicity against mouse 3T3L1 cells assessed as cell viability at 25 ug/ml after 7 days relative to control; type: cell-based; conditions: 3T3-L1 cells, read-out: Activity
Structure (SMILES),Activity [1],Activity [2],Activity [3],Activity [4],Activity [5],Activity [6],IC50 [20] [µg/mL],Activity [21] [%],IC50 [24] [µg/mL],"viability at 168 h, 100 ug/ml [25] [%]",other results
CC(C)[C@H]1CC=C(C(=O)O)[C@@H]2CCC(CO)=C[C@H]12,inactive,inactive,inactive,inactive,inactive,inactive,–,–,–,–,inhibition [7]: inactive; inhibition [8]: inactive; inhibition [9]: inactive; inhibition [10]: inactive; inhibition [11]: inactive; inhibition [12]: inactive; inhibition [13]: inactive; inhibition [14]: inactive; inhibition [15]: inactive; inhibition [16]: inactive; Activity [17]: inactive; Activity [18]: inactive; Activity [19]: inactive
CC1=C[C@H]2[C@@H](CC1)C(C(=O)O)=CC[C@@H]2C(C)(C)O,inactive,inactive,inactive,inactive,inactive,inactive,–,–,–,–,–
CC1=C[C@@H]2[C@@H](C(C)CO)CC=C(C(=O)O)[C@@H]2CC1 (some centres undefined),inactive,inactive,inactive,inactive,inactive,inactive,–,–,–,–,–
CC1=C[C@@H]2[C@@H](C(C)C)[C@H](O)C=C(C(=O)O)[C@@H]2CC1,inactive,inactive,inactive,inactive,inactive,inactive,53,26,76,46,"Activity [22]: 133%; Activity [23]: 117%; viability at 168 h, 20 ug/ml [26]: 79%; viability at 168 h, 4 ug/ml [27]: 82%"
CC1=C[C@@H]2[C@@H](C(C)C)CC=C(C(=O)O)[C@@H]2CC1,inactive,inactive,inactive,inactive,inactive,inactive,–,–,–,–,–
NC[C@H](O)c1ccc(O)c(O)c1 [NOREPINEPHRINE],–,–,–,–,–,–,69,33,> 100,69,"Activity [28]: 64%; Activity [29]: 71%; viability at 168 h, 50 ug/ml [30]: 102%; viability at 168 h, 25 ug/ml [31]: 123%"
